Assay results from US10080779B2, “Method for increasing the expression of anti-microbial peptides by keratinocytes comprising administering a composition comprising IL-17, TNF-alpha and OSM” (Universite D'Angers, priority 2004, dated 2018).

Experiments:
Type in all cases: cell-based, human
STAT3 = STAT3 phosphorylation in NHEK (Western blot)
Description: For STAT3 and MAPK phosphorylation, NHEK were stimulated for 15 min in the presence of the indicated cytokine. Cells were lysed in SDS sample buffer (62.5 mM Tris-HCl pH 6.8, 2% SDS, 10% glycerol, 50 mM DTT, 0.1% bromophenol blue), sonicated and then submitted to SDS-PAGE and transferred onto an Immobilon membrane. The membranes were subsequently incubated overnight with the primary antibody, before being incubated with the appropriate peroxidase-labelled secondary antibody for 60 min. The reaction was visualized by chemiluminescence according to the manufacturer's instructions. Membranes were stripped in 0.1 M glycine pH 2.8 for 2 h and neutralized in 1 M Tris-HCl pH 7.6 before reblotting. For neutralizing experiments, NHEK were incubated with the appropriate antibodies for 2 h before stimulation.

NHEK [1] = assay: In vitro keratinocyte migration assay; conditions: mitomycin-treated wounded NHEK; OSM 10 ng/ml, IL-31 100 ng/ml
Description: Keratinocytes were cultured in wells pre-coated with type I collagen (200 μg/ml, Institut Jacques Boy, Reims, France) until they reached 80% confluency. Cells were starved for 48 h in Keratinocyte SFM and then treated with 10 μg/ml of mitomycin C (Sigma) for 2 h to prevent cell proliferation. A cell-free area was created by scraping the keratinocyte monolayer with a plastic pipette tip. Keratinocytes migration to the cell-free area was evaluated after 48 h of culture in the absence or presence of EGF or OSM. Using an inverted phase contrast microscope. The number of migrating keratinocytes was counted in 4 non-overlapping fields. Values represent the mean±SEM of cells per mm^2 beyond the frontiers of the in vitro injury. Student's t test was used for statistical analysis.

NHEK [2] = assay: cDNA macroarrays analysis of 36 cytokines on 154 genes in NHEK; conditions: 10 ng/ml, 24 h
Description: The comparison of the effects of 36 different cytokines on the expression of 154 genes of potential interest for skin physiology was performed using home-made cDNA macroarrays analysis. After cytokine stimulation, total RNA was extracted using TRIzoI® Reagent (Invitrogen life Technologies) and conventional 33P-cDNA target synthesis and hybridization were performed (Boniface et al, 2007). Genes were considered regulated if expression levels differed more than 3-fold relative to untreated control and 3-fold relative to mean background noise.

OSM: human recombinant oncostatin M, cytokine of the IL-6 family
STAT3 tyrosine phosphorylation (P-STAT3) (STAT3; NHEK stimulated 15 min with the cytokine): strong induction of tyrosine phosphorylation
OSM concentration down to which plateau P-STAT3 level is still present (STAT3; NHEK, 15 min): ≥ 3 ng/mL
Keratinocyte migration to the cell-free area (NHEK [1]): important migration of NHEK, similar to that observed in the presence of EGF
Number of genes (of 154) whose expression is modified with at least a three fold increase or decrease (NHEK [2]): at least five genes
